Results: the NIST ThermoML archive (doi:10.1016/j.fluid.2014.10.016)

Experiments:
[1] = 313.15 K; Liquid; Closed cell (Static) method
[2] = excess molar enthalpy (molar enthalpy of mixing); xn = mol fraction of the nth substance listed; details: 101 kPa, Liquid, Flow calorimetry

CC(C)CC(C)(C)C [2,2,4-trimethylpentane]
Details	vapor or sublimation pressure [kPa]
[1]	12.97

CC(C)CC(C)(C)C [2,2,4-trimethylpentane] + CCCC(C)O
[2], x2 = 0
Details	excess molar enthalpy [kcal/mol]
298.15 K	0
313.15 K	0

CCCCCCC [heptane]
Details	vapor or sublimation pressure [kPa]
[1]	12.31

CCCCCCC [heptane] + CCCC(C)O
[2], x2 = 0
Details	excess molar enthalpy [kcal/mol]
298.15 K	0
313.15 K	0

CCCC(C)O (configuration not stated) [pentan-2-ol]
Details	vapor or sublimation pressure [kPa]
[1]	2.295

CCCC(C)O (configuration not stated) [pentan-2-ol] + CC(C)CC(C)(C)C
excess molar enthalpy [kcal/mol], [2]
Details	298.15 K	313.15 K
x1 = 0.0507	0.114	0.146
x1 = 0.0997	0.154	–
x1 = 0.0998	–	0.196
x1 = 0.1498	0.173	–
x1 = 0.1499	–	0.224
x1 = 0.2009	0.19	0.243
x1 = 0.2499	–	0.258
x1 = 0.25	0.202	–
x1 = 0.3022	0.213	–
x1 = 0.3023	–	0.268
x1 = 0.3502	–	0.271
x1 = 0.3503	0.22	–
x1 = 0.401	–	0.273
x1 = 0.4011	0.227	–
x1 = 0.452	–	0.272
x1 = 0.4521	0.229	–
x1 = 0.501	–	0.267
x1 = 0.5011	0.229	–
x1 = 0.552	–	0.26
x1 = 0.5521	0.22	–
x1 = 0.601	0.21	0.248
x1 = 0.6516	–	0.231
x1 = 0.6517	0.196	–
x1 = 0.7018	–	0.211
x1 = 0.7019	0.177	–
x1 = 0.7516	–	0.185
x1 = 0.7517	0.155	–
x1 = 0.8008	–	0.158
x1 = 0.8009	0.128	–
x1 = 0.851	0.0997	0.122
x1 = 0.9002	0.0677	0.0855
x1 = 0.95	0.0338	0.0441
x1 = 1	0	0

CCCC(C)O (configuration not stated) [pentan-2-ol] + CCCCCCC
excess molar enthalpy [kcal/mol], [2]
Details	298.15 K	313.15 K
x1 = 0.0504	–	0.146
x1 = 0.0505	0.117	–
x1 = 0.0996	–	0.197
x1 = 0.0997	0.151	–
x1 = 0.1475	–	0.223
x1 = 0.1477	0.173	–
x1 = 0.1967	–	0.242
x1 = 0.1969	0.19	–
x1 = 0.2469	–	0.256
x1 = 0.2472	0.203	–
x1 = 0.2956	–	0.265
x1 = 0.2962	0.211	–
x1 = 0.3455	–	0.27
x1 = 0.346	0.219	–
x1 = 0.3962	–	0.273
x1 = 0.3967	0.225	–
x1 = 0.4454	–	0.273
x1 = 0.4459	0.227	–
x1 = 0.4953	–	0.27
x1 = 0.4958	0.226	–
x1 = 0.5458	–	0.263
x1 = 0.5463	0.221	–
x1 = 0.5968	–	0.251
x1 = 0.5972	0.212	–
x1 = 0.6462	–	0.237
x1 = 0.6466	0.2	–
x1 = 0.6959	–	0.214
x1 = 0.6963	0.181	–
x1 = 0.7477	–	0.19
x1 = 0.748	0.159	–
x1 = 0.7979	–	0.161
x1 = 0.7981	0.132	–
x1 = 0.8481	–	0.127
x1 = 0.8483	0.103	–
x1 = 0.8984	–	0.088
x1 = 0.8985	0.0706	–
x1 = 0.9485	–	0.0461
x1 = 0.9486	0.0359	–
x1 = 1	0	0
